This is an account of results in patent publication US12048742B2, “Hepatitis C virus peptide compositions and methods of use thereof” (The Governors of the University of Alberta, priority 2018, dated 2024).

Where “and” joins values, the source holds several entries; their conditions need not be identical. Identical values can stand only once. No end group written: not given here.

Data set [1] can be described thus: Solubility of T-cell epitope polypeptides in E1E2 buffer (Protocol 1). Type of data set: physicochemical. Particulars: for solubility in E1E2 buffer (in words): Protocol 1, 1 mg/ml in E1E2 buffer, Nanodrop, FIG. 6, estimates based on A280 nm reading; for solubility: E1E2 buffer (10 mM sodium citrate, 250 mM NaCl, 1 mM EDTA, 0.1% TWEEN 80, pH 6.0), without adding dimethylsulfoxide, read-out: soluble in E1E2 buffer at a concentration of. The method, then:
For example, the peptides TP35-NS3 and TP50C are soluble in E1E2 buffer at a concentration of at least 1 mg/ml. The peptides TP35-NS3 and TP50C are soluble in E1E2 buffer at a concentration of at least 1 mg/ml, without the need for adding dimethylsulfoxide (DMS). In some cases, a T-cell epitope polypeptide suitable for inclusion in a composition of the present disclosure is soluble in E1E2 buffer at a concentration of at least 25 μg/ml, at least 30 μg/ml, at least 35 µg/ml, at least 50 μg/ml, at least 75 μg/ml, at least 100 μg/ml, at least 250 μg/ml, at least 500 µg/ml, at least 750 μg/ml, or at least 1 mg/ml.
Protocol 1 The solubility of the T-cell epitope polypeptides in E1E2 buffer was determined. E1E2 buffer: 10 mM sodium citrate, 250 mM NaCl, 1 mM ethylenediaminetetraacetic acid (EDTA), 0.1% non-ionic detergent TWEEN® 80, pH 6.0. Lyophilized T-cell epitope polypeptides were individually added to E1E2 buffer at a final concentration of 1 mg T-cell epitope polypeptide per ml E1E2 buffer, to generate T-cell epitope polypeptide/E1E2 solutions. The T-cell epitope polypeptide/E1E2 solutions were vortexed for 3 seconds. The T-cell epitope polypeptide/E1E2 solutions were then centrifuged at 10,000×g for 30 seconds. […] After centrifugation, the concentration of peptides was measured using Nanodrop (Thermo Fisher).
Solubility values shown in FIG. 6 are estimates based on A280 nm reading.

The next data set is described as follows: FIG. 6. An excerpt:
Table printed on a drawing sheet, FIG. 6
The patent's description of the figure: FIG. 6 provides the solubility of various T-cell epitope polypeptides in an aqueous buffer. TP35-NS3: SEQ ID NO:133; TP35-NS3(Lys)3: SEQ ID NO:302; TP42: SEQ ID NO:228; TP45 (C-terminal CNV replaced with KKK): SEQ ID NO:248; TP48: SEQ ID NO:254; TP48(Lys)3: SEQ ID NO:257; and TP50-C: SEQ ID NO:148.
First reader's note: Blanks inside the sequences only mark line breaks within the printed cell.

A short description of data set [2]: Solubility of reconstituted lyophilized peptides (Protocol 3). Particulars: Protocol 3, reconstituted in E1E2 buffer, E1E2 buffer without Tween, or water; shaking 2 h 30 min at room temperature; FIG. 13. Type of data set: physicochemical. The method, then:
Protocol 3 TP42, TP45(Lys)3, and TP48 were lyophilized. The lyophilized peptides were reconstituted in: i) E1E2 buffer; or ii) E1E2 buffer without Tween; or iii) water. The reconstituted peptide solutions were vigorously vortexed for 20 seconds. After vortexing, the peptide solutions were incubated at room temperature with continuous shaking at 300 rpm for 2 hours 30 minutes. Afterwards, peptide solutions were centrifuged at 5000×g for 1 minute. After centrifugation, the concentration of the peptides in the supernatant was measured.

Data set [3] in a line: TP42-2: […] MW= 4543 g/mol; EC= 3105 (secreted protein). As for the experimental part: Table printed on a drawing sheet, FIG. 27
Title: TP42-2: […] MW= 4543 g/mol; EC= 3105 (secreted protein)
The patent's description of the figure: FIG. 27 depicts solubility data for a TP33 T-cell epitope polypeptide (SEQ ID NO:279) and a TP42-2 T-cell epitope polypeptide (SEQ ID NO:291).
First reader's note: The sequence, MW and EC of TP42-2 are printed above the table; each row is one solution in which solubility was tested.

As for `CC[C@H](C)[C@H](NC(=O)[C@@H](NC(=O)[C@H](CO)NC(=O)[C@H](CC(=O)O)NC(=O)[C@H](Cc1ccccc1)NC(=O)[C@H](CC(=O)O)NC(=O)CNC(=O)[C@@H](NC(=O)[C@H](Cc1ccccc1)NC(=O)CNC(=O)[C@@H](NC(=O)[C@H](CCSC)NC(=O)[C@H](CC(C)C)NC(=O)[C@H](C)NC(=O)[C@H](CC(=O)O)NC(=O)[C@@H](NC(=O)[C@H](C)NC(=O)[C@@H](NC(=O)[C@@H](NC(=O)[C@@H](NC(=O)[C@@H](NC(=O)[C@H](CC(=O)O)NC(=O)CNC(=O)[C@H](CO)NC(=O)[C@@H](NC(=O)[C@@H]1CCCN1C(=O)[C@@H](NC(=O)[C@@H](NC(=O)[C@H](CO)NC(=O)[C@@H](NC(=O)[C@H](CC(=O)O)NC(=O)[C@H](CC(C)C)NC(=O)CNC(=O)[C@H](CCCNC(=N)N)NC(=O)[C@H](Cc1ccc(O)cc1)NC(=O)[C@H](Cc1ccc(O)cc1)NC(=O)[C@H](C)NC(=O)[C@@H](NC(=O)[C@H](C)NC(=O)[C@H](CC(N)=O)NC(=O)[C@@H](N)CC(C)C)C(C)C)C(C)C)C(C)C)[C@@H](C)CC)[C@@H](C)O)C(C)C)C(C)C)C(C)C)C(C)C)[C@@H](C)O)[C@@H](C)O)[C@@H](C)O)C(C)C)C(=O)N[C@@H](CC(=O)O)C(=O)N[C@@H](CCCCN)C(=O)N[C@@H](CCCCN)C(=O)N[C@@H](CCCCN)C(=O)O`, in data set [1], the “solubility in E1E2 buffer (in words)” value is “much lower solubility”.

“GTEGEIPFYGKAIPLEQIKGGRHLIFCHSKKKCDELAAKLTG [TP42] [listing 1 of 2 here]”: in “FIG. 6”, the “Measured Concentration” value amounted to 0.079 mg/mL and the “Solubility (%)” value is 12%.

Turning to “GTEGEIPFYGKAIPLEQIKGGRHLIFCHSKKKCDELAAKLTG [TP42] [listing 2 of 2 here]”, the “solubility (in words)” value in data set [2] is given as “good solubility”. For the same compound, the “visible precipitation in E1E2 buffer” value in data set [1] (Protocol 1, 1 mg peptide per ml E1E2 buffer, after vortexing and centrifugation at 10,000×g) is on record as “precipitation was visible”. Moreover, in data set [1], the “solubility in E1E2 buffer (in words)” value is reported as “much lower solubility”.

As for “GVYLLPRRGPRLGVRATRKTSERSQPRGRRQPIPKARRSEGRSWAQPGYP [TP50-C]”, in data set [1], the solubility was not below 1000 µg/mL and the “solubility in E1E2 buffer (in words)” value is given as “good solubility”.

On to “ILRRHVGPGEGAVQWMNRLIAFASRGNHVSPTHYVPESDASARVTQIL [TP48]”, for which, in data set [2], the “solubility (in words)” value is recorded as “good solubility”.

As to “ILRRHVGPGEGAVQWMNRLIAFASRGNHVSPTHYVPESDASARVTQILKKK [TP48-(Lys)3]”, the “solubility in E1E2 buffer (in words)” value in data set [1] was “good solubility”.

“KGGRHLIFCHSKKKCDELAAKLTGLGLNAVAYYRGLDVSVIP [TP42-2]”: in data set [3], the “Solubility | Measured” value is 415 µg/mL and 215 µg/mL and 233 µg/mL; the “Solubility | Percent (%)” value is 83% and 43% and 47%.

Turning to “KSTKVPAAYAAQGYKVLVLNPSVAATLGFGAYMSK [TP35-NS3]”, in data set [1], the solubility is not below 1000 µg/mL and the “solubility in E1E2 buffer (in words)” value is listed as “good solubility”.

In the case of “KSTKVPAAYAAQGYKVLVLNPSVAATLGFGAYMSKKKK [TP35-NS3-(Lys)3]”, the “solubility in E1E2 buffer (in words)” value in data set [1] was “good solubility”.
